The values below come from US20140243273A1, “METHODS FOR TREATING INFLAMMATORY DISEASES AND PHARMACEUTICAL COMBINATIONS USEFUL THEREFOR” (Vertex Pharmaceuticals Incorporated, priority 2011, published 2014).

Structures are written as SMILES.

In assay [1] the target is T1, JAK3 (Homo sapiens, UniProt P52333).
T1 sequence (P52333 1-1124): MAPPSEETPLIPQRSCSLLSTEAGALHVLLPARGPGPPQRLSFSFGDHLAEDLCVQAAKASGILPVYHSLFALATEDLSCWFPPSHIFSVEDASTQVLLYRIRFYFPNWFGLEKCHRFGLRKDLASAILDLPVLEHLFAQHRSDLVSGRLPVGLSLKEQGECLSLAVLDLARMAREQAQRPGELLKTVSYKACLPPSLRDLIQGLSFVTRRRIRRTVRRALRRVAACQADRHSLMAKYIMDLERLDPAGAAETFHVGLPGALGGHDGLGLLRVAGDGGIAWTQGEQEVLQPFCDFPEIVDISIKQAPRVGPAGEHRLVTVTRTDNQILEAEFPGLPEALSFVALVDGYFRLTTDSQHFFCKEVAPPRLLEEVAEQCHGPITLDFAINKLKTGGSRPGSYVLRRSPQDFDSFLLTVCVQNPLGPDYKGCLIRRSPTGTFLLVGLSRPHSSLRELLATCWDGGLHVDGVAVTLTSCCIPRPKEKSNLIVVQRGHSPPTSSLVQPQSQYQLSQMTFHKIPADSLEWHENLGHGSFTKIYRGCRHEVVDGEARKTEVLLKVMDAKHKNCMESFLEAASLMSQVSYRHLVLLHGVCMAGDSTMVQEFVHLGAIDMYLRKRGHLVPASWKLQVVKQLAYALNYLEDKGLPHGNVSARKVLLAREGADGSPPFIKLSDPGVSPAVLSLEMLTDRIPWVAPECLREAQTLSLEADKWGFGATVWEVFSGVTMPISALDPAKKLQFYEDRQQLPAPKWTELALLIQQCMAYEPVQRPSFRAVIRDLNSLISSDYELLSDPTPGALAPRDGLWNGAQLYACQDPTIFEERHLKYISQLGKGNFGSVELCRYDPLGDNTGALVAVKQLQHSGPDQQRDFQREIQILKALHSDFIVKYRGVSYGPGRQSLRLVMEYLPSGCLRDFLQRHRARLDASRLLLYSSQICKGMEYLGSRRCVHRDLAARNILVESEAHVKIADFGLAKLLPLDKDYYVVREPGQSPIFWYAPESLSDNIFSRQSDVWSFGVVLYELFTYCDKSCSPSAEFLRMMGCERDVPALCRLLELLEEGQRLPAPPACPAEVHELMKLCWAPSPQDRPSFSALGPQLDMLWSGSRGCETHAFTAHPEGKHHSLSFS
In words: JAK3 Inhibition Assay. Type of assay: biochemical. To be noted: 1 nM JAK3, 1 μM poly(Glu)4Tyr, 5 μM ATP, 25° C.; kind of constant not given. The method, then:
(§1) Compounds were screened for their ability to inhibit JAK3 using the assay shown below. Reactions were carried out in a kinase buffer containing 100 mM HEPES (pH 7.4), 1 mM DTT, 10 mM MgCl2, 25 mM NaCl, and 0.01% BSA. Substrate concentrations in the assay were 5 μM ATP (200 uCi/μmole ATP) and 1 μM poly(Glu)4Tyr. Reactions were carried out at 25° C. and 1 nM JAK3.
(§2) To each well of a 96 well polycarbonate plate was added 1.5 μl of a compound of Formula I along with 50 μl of kinase buffer containing 2 μM poly(Glu)4Tyr and 10 μM ATP. This was then mixed and 50 μl of kinase buffer containing 2 nM JAK3 enzyme was added to start the reaction. After 15 minutes at room temperature (25° C.), the reaction was stopped with 50 μl of 20% trichloroacetic acid (TCA) that also contained 0.4 mM ATP. The entire contents of each well were then transferred to a 96 well glass fiber filter plate using a TomTek Cell Harvester. After washing, 60 μl of scintillation fluid was added and ^33P incorporation detected on a Perkin Elmer TopCount.

Assay [2] deals with JAK2 (Homo sapiens, UniProt O60674). Nature of the assay: JAK2 Inhibition Assay. To be noted: 5 nM JAK-2 enzyme, 15 μM poly(Glu)4Tyr, 12 μM ATP; kind of constant not given. It counts as biochemical. The method, then:
[The procedure below names another target; the source says it served here with some conditions changed.] as §1, §2

Assay [3] deals with mouse colitis model. In words: Mouse model for Crohn's disease and ulcerative colitis (CD4+CD25- T cell transfer into SCID mice). It counts as in vivo. To be noted: compound no. 9 (methane sulfonic acid), 50, 100, 150 mpk b.i.d., oral gavage, days 19-33, SCID mice. The method, then: Female SCID mice received grafts of 2.5×10e5 CD4+CD25-T cells from naïve BALB/c wild type donors (all Charles River Laboratories) to induce colitis. On day 14, after cell transfer, the recipient SCID mice were tested for graft acceptance and mice without T cells removed from the study. On days 19-33, the recipient SCID mice were administered compound no. 9 (methane sulfonic acid) mixed with vehicle (1% HPMC-c5, 50 mM Na citrate, pH 3.0) in doses of 50, 100, and 150 mpk b.i.d. Control mice were administered either saline, vehicle (1% HPMC-c5, 50 mM Na citrate, pH 3.0), or 1 mpk dexamethasone, b.i.d. Doses were administered via oral gavage. On day 35, the mice were sacrificed.

Chain of JAK2 (O60674 whole entry, species assumed): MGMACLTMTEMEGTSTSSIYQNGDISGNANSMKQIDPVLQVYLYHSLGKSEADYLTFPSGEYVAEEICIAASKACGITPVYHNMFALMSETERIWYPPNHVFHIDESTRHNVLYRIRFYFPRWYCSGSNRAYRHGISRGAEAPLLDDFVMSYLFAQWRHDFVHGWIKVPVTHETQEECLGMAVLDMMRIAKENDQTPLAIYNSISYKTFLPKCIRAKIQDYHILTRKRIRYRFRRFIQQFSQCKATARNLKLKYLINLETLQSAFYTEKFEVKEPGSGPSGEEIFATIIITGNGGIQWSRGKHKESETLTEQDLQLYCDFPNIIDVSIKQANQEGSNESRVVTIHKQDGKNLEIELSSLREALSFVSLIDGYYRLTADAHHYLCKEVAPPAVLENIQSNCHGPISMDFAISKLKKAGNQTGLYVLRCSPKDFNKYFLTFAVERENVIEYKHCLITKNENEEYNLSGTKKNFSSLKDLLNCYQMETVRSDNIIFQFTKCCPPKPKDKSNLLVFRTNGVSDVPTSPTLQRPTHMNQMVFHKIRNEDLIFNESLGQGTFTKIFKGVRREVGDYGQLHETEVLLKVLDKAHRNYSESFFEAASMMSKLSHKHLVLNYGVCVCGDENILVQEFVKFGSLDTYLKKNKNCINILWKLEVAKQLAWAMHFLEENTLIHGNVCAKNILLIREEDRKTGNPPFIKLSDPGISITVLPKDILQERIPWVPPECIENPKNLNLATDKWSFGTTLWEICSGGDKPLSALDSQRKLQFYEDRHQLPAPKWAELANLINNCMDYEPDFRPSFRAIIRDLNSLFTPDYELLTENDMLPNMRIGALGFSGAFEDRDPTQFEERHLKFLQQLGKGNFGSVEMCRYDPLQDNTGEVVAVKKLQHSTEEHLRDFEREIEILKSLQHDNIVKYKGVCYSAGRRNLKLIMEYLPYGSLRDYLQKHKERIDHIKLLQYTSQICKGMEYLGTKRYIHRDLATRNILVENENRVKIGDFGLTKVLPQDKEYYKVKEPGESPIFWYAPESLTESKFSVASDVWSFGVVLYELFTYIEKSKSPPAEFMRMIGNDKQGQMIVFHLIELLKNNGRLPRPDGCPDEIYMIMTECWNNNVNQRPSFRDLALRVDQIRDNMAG

`CC[C@](C)(Nc1nc(-c2c[nH]c3ncc(Cl)cc23)ncc1F)C(=O)NCC(F)(F)F` [compound 15]: in assay [1], the “JAK3 (μM), inhibition data” value worked out at 0.002 µM. The “JAK2 (μM), inhibition data” value in assay [2] was 0.001 µM.
Turning to `CC(C)(Nc1nc(-c2c[nH]c3ncc(Cl)cc23)ncc1F)C(=O)NCC(F)(F)F` [compound 19], the “JAK3 (μM), inhibition data” value in assay [1] was 0.004 µM. The “JAK2 (μM), inhibition data” value in assay [2] stood at 0.001 µM.
In the case of `CC(C)[C@](C)(Nc1nc(-c2c[nH]c3ncc(Cl)cc23)ncc1F)C(=O)NCC(F)(F)F` [compound 10], the “JAK3 (μM), inhibition data” value in assay [1] is 0.002 µM. Also, the “JAK2 (μM), inhibition data” value in assay [2] stood at 0.001 µM.
The corresponding values for `CC(C)(Nc1ccnc(-c2c[nH]c3ncccc23)n1)C(=O)NCC(F)(F)F` [compound 2] are 0.0032 µM and 0.028 µM.
`CC(C)(Nc1ncnc(-c2c[nH]c3ncc(Cl)cc23)n1)C(=O)NCC(F)(F)F` [compound 13]: in assay [1], the “JAK3 (μM), inhibition data” value stood at 0.001 µM. The “JAK2 (μM), inhibition data” value in assay [2] stood at 0.003 µM.
Turning to `CC[C@](C)(Nc1ccnc(-c2c[nH]c3ncc(Cl)cc23)n1)C(=O)NCC(F)(F)F` [compound 14], the “JAK3 (μM), inhibition data” value in assay [1] stood at 0.003 µM. The “JAK2 (μM), inhibition data” value in assay [2] was 0.002 µM.
For the compound `CC(C)(Nc1ccnc(-c2c[nH]c3ncc(Cl)cc23)n1)C(=O)NCC(F)(F)F` [Compound No. 9], the “JAK3 (μM), inhibition data” value in assay [1] is 0.001 µM. For the same compound, in assay [3], the colon histology result is reported as “Improvements”, the colon pathology entry is “improved” and the “frequency of splenic CD4+ T cells” value is “significant reduction”. Also, the inflammatory cytokine production result in assay [3] (colon tissue) is “improved”. Further, the “JAK2 (μM), inhibition data” value in assay [2] turned out to be 0.001 µM.
For `CC[C@@](C)(Nc1ccnc(-c2c[nH]c3ncc(Cl)cc23)n1)C(=O)NCC(F)(F)F` [compound 16], the “JAK3 (μM), inhibition data” value in assay [1] worked out at 0.002 µM. In addition, the “JAK2 (μM), inhibition data” value in assay [2] worked out at 0.01 µM.
`CC(C)[C@](C)(Nc1ccnc(-c2c[nH]c3ncc(Cl)cc23)n1)C(=O)NCC(F)(F)F` [compound 18]: in assay [1], the “JAK3 (μM), inhibition data” value came out at 0.001 µM. Moreover, the “JAK2 (μM), inhibition data” value in assay [2] came to 0.0007 µM.
Regarding `CC(C)[C@@](C)(Nc1nc(-c2c[nH]c3ncc(Cl)cc23)ncc1F)C(=O)NCC(F)(F)F` [compound 11], the “JAK3 (μM), inhibition data” value in assay [1] stood at 0.006 µM. The “JAK2 (μM), inhibition data” value in assay [2] turned out to be 0.055 µM.
Consider `CCN(C)C(=O)[C@](C)(CC)Nc1ccnc(-c2c[nH]c3ncccc23)n1` [compound 7], for which, in assay [1], the “JAK3 (μM), inhibition data” value amounted to 0.018 µM. For the same compound, the “JAK2 (μM), inhibition data” value in assay [2] is 0.056 µM.
The corresponding values for `CC(C)[C@](C)(Nc1ccnc(-c2c[nH]c3ncccc23)n1)C(=O)NCC(F)(F)F` [compound 5] are 0.0024 µM and 0.0042 µM.
The corresponding values for `CC(C)(Nc1ncnc(-c2c[nH]c3ncccc23)n1)C(=O)NCC(F)(F)F` [compound 6] are 0.0045 µM and 0.046 µM.
As to `CCNC(=O)C(C)(C)Nc1ncnc(-c2c[nH]c3ncccc23)n1` [compound 8], the “JAK3 (μM), inhibition data” value in assay [1] amounted to 0.019 µM. Also, in assay [2], the “JAK2 (μM), inhibition data” value was 0.083 µM.
The corresponding values for `CCNC(=O)C(C)(C)Nc1ccnc(-c2c[nH]c3ncc(Cl)cc23)n1` [compound 17] are 0.001 µM and 0.003 µM.
Turning to `CC(C)(Nc1nc(-c2c[nH]c3ncccc23)ncc1F)C(=O)NCC(F)(F)F` [compound 4], in assay [1], the “JAK3 (μM), inhibition data” value turned out to be 0.0056 µM. Besides, the “JAK2 (μM), inhibition data” value in assay [2] was 0.091 µM.
The corresponding values for `CC[C@@](C)(Nc1nc(-c2c[nH]c3ncc(Cl)cc23)ncc1F)C(=O)NCC(F)(F)F` [compound 12] are 0.006 µM and 0.037 µM.
The like results for `CC[C@](C)(Nc1nc(-c2c[nH]c3ncccc23)ncc1F)C(=O)NCC(F)(F)F` [compound 3] were, in that order, 0.0042 µM and 0.028 µM.
Regarding `CC[C@@](C)(Nc1ccnc(-c2c[nH]c3ncccc23)n1)C(=O)NCC(F)(F)F` [compound 1], in assay [1], the “JAK3 (μM), inhibition data” value worked out at 0.003 µM. In addition, the “JAK2 (μM), inhibition data” value in assay [2] amounted to 0.015 µM.
